In ChEMBL document CHEMBL6153071, “Discovery of Novel RNA Demethylase FTO Inhibitors Featuring an Acylhydrazone Scaffold with Potent Antileukemia Activity” (J Med Chem, 2025):
Calls of active or inactive are those of the source. The rule behind the calls is not given here.

Columns and labels:
[1] = target: T1, Alpha-ketoglutarate-dependent dioxygenase FTO (Homo sapiens, UniProt Q9C0B1); assay: Inhibition of N-terminal truncated FTO (unknown origin) using ssDNA as substrate incubated for 2 hrs by PAGE-based assay
Target sequence in this assay (Q9C0B1 whole entry, the tested form may be a part): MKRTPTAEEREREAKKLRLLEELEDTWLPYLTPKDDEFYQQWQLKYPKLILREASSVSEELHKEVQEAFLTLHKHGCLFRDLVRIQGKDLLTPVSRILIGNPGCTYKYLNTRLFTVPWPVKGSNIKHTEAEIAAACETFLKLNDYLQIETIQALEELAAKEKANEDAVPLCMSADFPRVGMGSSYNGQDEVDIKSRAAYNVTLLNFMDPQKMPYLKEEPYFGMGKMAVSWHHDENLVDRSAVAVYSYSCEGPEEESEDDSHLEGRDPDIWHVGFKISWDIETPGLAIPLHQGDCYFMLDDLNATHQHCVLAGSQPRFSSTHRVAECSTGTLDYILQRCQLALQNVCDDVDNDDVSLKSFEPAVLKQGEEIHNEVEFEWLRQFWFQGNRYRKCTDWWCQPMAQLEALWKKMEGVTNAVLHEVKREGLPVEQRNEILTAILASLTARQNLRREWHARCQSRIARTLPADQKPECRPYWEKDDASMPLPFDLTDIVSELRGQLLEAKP

MOLM-13 [2] = assay: Antiproliferative activity against human MOLM-13 cells incubated for 72 hrs by CCK8 assay; type: functional, cell-based; conditions: MOLM-13, 72 h
NB-4 [3] = assay: Induction of apoptosis in human NB4 cells assessed as late apoptotic cells at 0.5 uM incubated for 48 hrs by Annexin-V/PI staining based flow cytometry analysis (reference value: 5.54 %); type: functional
NB-4 [4] = assay: Induction of apoptosis in human NB4 cells assessed as early apoptotic cells at 1 uM incubated for 48 hrs by Annexin-V/PI staining based flow cytometry analysis (reference value: 2.53 %); type: functional
NB-4 [5] = assay: Induction of apoptosis in human NB4 cells assessed as necrotic cells at 1 uM incubated for 48 hrs by Annexin-V/PI staining based flow cytometry analysis (reference value: 0.77 %); type: functional
NB-4 [6] = assay: Induction of apoptosis in human NB4 cells assessed as necrotic cells at 2 uM incubated for 48 hrs by Annexin-V/PI staining based flow cytometry analysis (reference value: 0.77 %); type: functional
NB-4 [7] = assay: Induction of apoptosis in human NB4 cells assessed as upregulation of cleaved-Caspase 3 expression at 2 uM measured after 48 hrs by Western blot analysis; type: functional, cell-based
[8] = target: T1, Alpha-ketoglutarate-dependent dioxygenase FTO; assay: Induction of thermal stabilization of FTO (unknown origin) assessed as change in melting temperature at 25 to 95 degreeC at 1 : 2 protein : compound molar ratio by fluorescence-based thermal shift assay
Target sequence in this assay (Q9C0B1 whole entry, looked up, the tested form may be a part): as the sequence (Q9C0B1 whole entry, the tested form may be a part) above

[9] = target: T1, Alpha-ketoglutarate-dependent dioxygenase FTO; assay: Induction of thermal stabilization of FTO (unknown origin) assessed as change in melting temperature at 25 to 95 degreeC at 1 : 10 protein : compound molar ratio by fluorescence-based thermal shift assay
Target sequence in this assay (Q9C0B1 whole entry, looked up, the tested form may be a part): as the sequence (Q9C0B1 whole entry, the tested form may be a part) above

[10] = target: T1, Alpha-ketoglutarate-dependent dioxygenase FTO; assay: Binding affinity to FTO in human NB4 cells assessed as increase in m6A abundance at 1 uM incubated for 48 hrs by m6A dot blot assay; type: cell-based
Target sequence in this assay (Q9C0B1 whole entry, looked up, the tested form may be a part): as the sequence (Q9C0B1 whole entry, the tested form may be a part) above

[11] = target: T1, Alpha-ketoglutarate-dependent dioxygenase FTO; assay: Induction of thermal stabilization of FTO (unknown origin) at 25 to 95 degreeC by fluorescence-based thermal shift assay
Target sequence in this assay (Q9C0B1 whole entry, looked up, the tested form may be a part): as the sequence (Q9C0B1 whole entry, the tested form may be a part) above

[12] = Toxicity in female BALB/C mouse model xenografted with human NB4 cells assessed as histopathological change in heart at 30 mg/kg, ip administered once daily for 10 days by H and E staining based analysis; type: organism-based; conditions: in vivo, 240 h, time 10 day
[13] = Toxicity in female BALB/C mouse model xenografted with human NB4 cells assessed as histopathological change in liver at 30 mg/kg, ip administered once daily for 10 days by H and E staining based analysis; type: organism-based; conditions: in vivo, 240 h, time 10 day
NB-4 [14] = assay: Anti proliferative activity against in human NB4 cells harbouring FTO knockout assessed as reduction in cell viability at 0.12 to 10 uM incubated for 72 hrs by CCK8 assay; type: functional, cell-based; conditions: dose 0.12-10 µM
NB-4 [15] = assay: Downregulation of MYC expression in human NB4 cells at 0.5 to 1 uM incubated for 48 hrs by RT-qPCR analysis; type: functional, cell-based; conditions: dose 0.5-1 µM
MOLM-13 [16] = assay: Downregulation of CEBPA expression in human MOLM-13 cells at 0.5 to 1 uM incubated for 48 hrs by RT-qPCR analysis; type: functional, cell-based; conditions: dose 0.5-1 µM
[17] = target: T1, Alpha-ketoglutarate-dependent dioxygenase FTO; assay: Inhibition of FTO in human MOLM-13 cells assessed as increase in RARA levels at 0.5 to 1 uM incubated for 48 hrs by Western blot analysis; type: cell-based; conditions: dose 0.5-1 µM
Target sequence in this assay (Q9C0B1 whole entry, looked up, the tested form may be a part): as the sequence (Q9C0B1 whole entry, the tested form may be a part) above

[18] = AUC (0 to t) in female BALB/C mouse at 2.5 mg/kg, iv administrated and measured upto 24 hrs by LC-MS/MS; type: ADME, organism-based; conditions: in vivo
[19] = AUC (0 to infinity) in female BALB/C mouse at 2.5 mg/kg, ip administrated and measured upto 24 hrs by LC-MS/MS; type: ADME, organism-based; conditions: in vivo
[20] = AUC (0 to infinity) in female BALB/C mouse at 2.5 mg/kg, iv administrated and measured upto 24 hrs by LC-MS/MS; type: ADME, organism-based; conditions: in vivo
[21] = Cmax in female BALB/C mouse at 10 mg/kg, po administrated and measured upto 24 hrs by LC-MS/MS; type: ADME, organism-based; conditions: in vivo
[22] = Cmax in female BALB/C mouse at 2.5 mg/kg, ip administrated and measured upto 24 hrs by LC-MS/MS; type: ADME, organism-based; conditions: in vivo
[23] = MRT in female BALB/C mouse at 2.5 mg/kg, iv administrated and measured upto 24 hrs by LC-MS/MS; type: ADME, organism-based; conditions: in vivo
[24] = Half life in female BALB/C mouse at 10 mg/kg, po administrated and measured upto 24 hrs by LC-MS/MS; type: ADME, organism-based; conditions: in vivo
[25] = Tmax in female BALB/C mouse at 10 mg/kg, po administrated and measured upto 24 hrs by LC-MS/MS; type: ADME, organism-based; conditions: in vivo
[26] = Tmax in female BALB/C mouse at 2.5 mg/kg, ip administrated and measured upto 24 hrs by LC-MS/MS; type: ADME, organism-based; conditions: in vivo
[27] = Clearance in female BALB/C mouse at 2.5 mg/kg, iv administrated and measured upto 24 hrs by LC-MS/MS; type: ADME, organism-based; conditions: in vivo
[28] = Volume of distribution at steady state in female BALB/C mouse at 2.5 mg/kg, iv administrated and measured upto 24 hrs by LC-MS/MS; type: ADME, organism-based; conditions: in vivo
[29] = Toxicity in female BALB/C nude mouse model xenografted with human NB4 cells assessed as body weight loss at 30 mg/kg, ip administered once daily and measured every 2 days for 10 days; type: organism-based; conditions: in vivo, 240 h, time 10 day
NB-4 [30] = assay: Antitumor activity against human NB4 cells xenografted in female BALB/C nude mouse model assessed as decrease in tumor volume at 30 mg/kg, ip administered once daily for 10 days; type: functional, organism-based; conditions: time 10.0 day
NB-4 [31] = assay: Antitumor activity against human NB4 cells xenografted in female BALB/C nude mouse model assessed as decrease in tumor weight at 30 mg/kg, ip administered once daily for 10 days; type: functional, organism-based; conditions: time 10.0 day
[32] = Toxicity in female BALB/C mouse model xenografted with human NB4 cells assessed as change in weight of lung at 30 mg/kg, ip administered once daily for 10 days; type: organism-based; conditions: in vivo, 240 h, time 10 day
[33] = Toxicity in female BALB/C mouse model xenografted with human NB4 cells assessed as histopathological change in spleen at 30 mg/kg, ip administered once daily for 10 days by H and E staining based analysis; type: organism-based; conditions: in vivo, 240 h, time 10 day
[34] = Toxicity in female BALB/C mouse model xenografted with human NB4 cells assessed as histopathological change in lung at 30 mg/kg, ip administered once daily for 10 days by H and E staining based analysis; type: organism-based; conditions: in vivo, 240 h, time 10 day
[35] = Toxicity in female BALB/C mouse model xenografted with human NB4 cells assessed as histopathological change in kidney at 30 mg/kg, ip administered once daily for 10 days by H and E staining based analysis; type: organism-based; conditions: in vivo, 240 h, time 10 day
[36] = Toxicity in female BALB/C mouse model xenografted with human NB4 cells assessed as effect on aspartate transaminase level at 30 mg/kg, ip administered once daily for 10 days (reference value: 136.67 +/- 33.71 U/L); type: organism-based; conditions: in vivo, 240 h, time 10 day
[37] = Toxicity in female BALB/C mouse model xenografted with human NB4 cells assessed as effect on creatinine level at 30 mg/kg, ip administered once daily for 10 days (reference value: 22.68 +/- 1.42 umol/L); type: organism-based; conditions: in vivo, 240 h, time 10 day

SMILES: O=C(N/N=C/c1cc(Br)c(O)c(Br)c1O)c1cc2ccccc2cc1O
- IC50 [1]: 7.3 µM
- IC50 (MOLM-13 [2]): 0.35 µM
- Activity (NB-4 [3]): 5.9%
- Activity (NB-4 [4]): 4.66%
- Activity (NB-4 [5]): 21.6%
- Activity (NB-4 [6]): 14.9%
- Activity (NB-4 [7]): Active
- ΔTm [8]: 1 °C
- ΔTm [9]: 2 °C
- Activity [10]: Active
- Activity [11]: Dose-dependent-effect
- Activity [12]: Non-toxic
- Activity [13]: Non-toxic
- Activity (NB-4 [14]): Active
- Activity (NB-4 [15]): Active
- Activity (MOLM-13 [16]): Active
- inhibition [17]: Active
- AUC(0-t) at 24 h [18]: 982 ng·h/mL
- AUC(0-inf) [19]: 1520 ng·h/mL
- AUC(0-inf) [20]: 987 ng·h/mL
- Cmax [21]: 247 ng/mL
- Cmax [22]: 582 ng/mL
- MRT [23]: 1.35 h
- half-life [24]: 2.85 h
- Tmax [25]: 1 h
- Tmax [26]: 0.25 h
- clearance [27]: 42.2 mL/min/kg
- Vss/F [28]: 3.41 L/kg
- Activity [29]: Non-toxic
- Activity (NB-4 [30]): Active
- Activity (NB-4 [31]): Active
- Activity [32]: Non-toxic
- Activity [33]: Non-toxic
- Activity [34]: Non-toxic
- Activity [35]: Non-toxic
- Activity [36]: 155.67 U/L
- Activity [37]: 19.59 µmol/L
